This is an account of results in patent US8293272B2, “Solid pharmaceutical preparation containing levothyroxine and/or liothyronine salts” (Globopharm Pharmazeutische Produktions-und …, priority 2003, dated 2012).

This series in a line: accelerated storage stability at 40° C. and 75% relative humidity (active ingredient content).

As to `N[C@@H](Cc1cc(I)c(Oc2cc(I)c(O)c(I)c2)c(I)c1)C(=O)[O-].[Na+]` [Levothyroxine-Na], the “activity of the original quantity” value (160 μg levothyroxine-Na preparation, water factor 0.3, 40° C. and 75% relative humidity, 3 months) was found to be 95.2 % by weight. For the same compound, the residual activity (160 μg levothyroxine-Na preparation, water factors 0.4 to 0.5, 40° C. and 75% relative humidity, 3 months) is 90.7 % by weight.
In the case of `N[C@@H](Cc1cc(I)c(Oc2ccc(O)c(I)c2)c(I)c1)C(=O)[O-].[Na+]` [liothyronine-Na], the “employed quantity still active” value (combination preparation containing 25 μg liothyronine-Na, water factor 0.25, one month) is 97.7 % by weight. In addition, the content remaining (combination preparation containing 25 μg liothyronine-Na, water factor 0.4 to 0.5, 1 month) is 87.2%.
